# Source: ChEMBL document CHEMBL1201862, “PubChem BioAssay data set” (2004)
#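 Tested at 5 concentrations; 48 h exposure; 96-well plates; endpoints linearly interpolated, else capped at highest concentration. At the GI50, growth is halved.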 Activity calls are given as the source filed them. No stated cut-off is given here; in the data, active = GI50 up to about 1.1 µM and inactive = higher.
# Columns and labels:
# Experiment in all cases: NCI tumour cell line growth inhibition, 48 h
# BT-549 = system: BT-549
# M14 = system: M14
# NCI-H226 = system: NCI-H226
# OVCAR-5 = system: OVCAR-5
# HL-60 = system: HL-60
# LOX IMVI = system: LOX IMVI
# CCRF-CEM = system: CCRF-CEM
# SN12C = system: SN12C
# NCI-H23 = system: NCI-H23
# PC-3 = system: PC-3
# KM12 = system: KM12
# SK-MEL-2 = system: SK-MEL-2
# ACHN = system: ACHN
# CAKI-1 = system: CAKI-1
# SF-268 = system: SF-268
# HCT-15 = system: HCT-15
# UO-31 = system: UO-31
# RPMI-8226 = system: RPMI-8226
# K562 = system: K562
Structure (SMILES),GI50 (BT-549),GI50 (M14),GI50 (NCI-H226),GI50 (OVCAR-5),GI50 (HL-60),GI50 (LOX IMVI),GI50 (CCRF-CEM),GI50 (SN12C),GI50 (NCI-H23),GI50 (PC-3),GI50 (KM12),GI50 (SK-MEL-2),GI50 (ACHN),GI50 (CAKI-1),GI50 (SF-268),GI50 (HCT-15) [µM],GI50 (UO-31),GI50 (RPMI-8226),GI50 (K562)
C[C@@H]1CC[C@@]2(C)C(C(=O)O)=CCCC2[C@@]1(C)CC(=O)c1ccoc1 (stereo not given in full),> 25 µM (inactive),> 25 µM (inactive),> 25 µM (inactive),> 25 µM (inactive),> 25 µM (inactive),> 25 µM (inactive),> 25 µM (inactive),> 25 µM (inactive),> 25 µM (inactive),> 25 µM (inactive),> 25 µM (inactive),> 25 µM (inactive),> 25 µM (inactive),> 25 µM (inactive),> 25 µM (inactive),> 25,> 25 µM (inactive),> 25 µM (inactive),
O=C1CC=C2C3CC4N(CCC45c4ccccc4N1C25)C/C3=C\CO (stereo not given),> 100 µM (inactive),,> 100 µM (inactive),> 100 µM (inactive),> 100 µM (inactive),> 100 µM (inactive),> 100 µM (inactive),> 100 µM (inactive),> 100 µM (inactive),> 100 µM (inactive),> 100 µM (inactive),> 100 µM (inactive),> 100 µM (inactive),> 100 µM (inactive),> 100 µM (inactive),> 100,> 100 µM (inactive),> 100 µM (inactive),> 100 µM (inactive)
COc1ccc2c(c1OC)C(Br)CCC(Br)(Br)C2=O (stereo not given),7.87 µM (inactive),5.25 µM (inactive),14 µM (inactive),17.5 µM (inactive),5.27 µM (inactive),2.93 µM (inactive),,4.83 µM (inactive),7.21 µM (inactive),11.9 µM (inactive),16.3 µM (inactive),14.4 µM (inactive),1.94 µM (inactive),1.78 µM (inactive),14 µM (inactive),5.57,4.81 µM (inactive),4.81 µM (inactive),2.79 µM (inactive)
CC(=O)Nc1ccc(NC(=O)CC(=O)Nc2ccc(NC(C)=O)cc2)cc1,> 100 µM (inactive),> 100 µM (inactive),> 100 µM (inactive),,> 100 µM (inactive),> 100 µM (inactive),> 100 µM (inactive),> 100 µM (inactive),> 100 µM (inactive),> 100 µM (inactive),> 100 µM (inactive),,> 100 µM (inactive),> 100 µM (inactive),> 100 µM (inactive),25.8,> 100 µM (inactive),> 100 µM (inactive),> 100 µM (inactive)
COc1ccc(C2SC(=N)Nc3c2c(C)nn3C(=O)Cc2ccccc2)cc1 (stereo not given),> 100 µM (inactive),> 100 µM (inactive),> 100 µM (inactive),,> 100 µM (inactive),> 100 µM (inactive),> 100 µM (inactive),> 100 µM (inactive),> 100 µM (inactive),> 100 µM (inactive),> 100 µM (inactive),,> 100 µM (inactive),> 100 µM (inactive),> 100 µM (inactive),> 100,> 100 µM (inactive),> 100 µM (inactive),> 100 µM (inactive)
C[C@H](CC[C@@H](O)C(C)(C)O)[C@H]1CC[C@@]2(C)[C@@H]3CC=C4[C@@H](CC[C@H](OC5OC(CO)C(O)C(O)C5O)C4(C)C)[C@]3(C)C(=O)C[C@]12C (stereo not given in full),56.5 µM (inactive),31.1 µM (inactive),> 100 µM (inactive),> 100 µM (inactive),20.7 µM (inactive),39 µM (inactive),14.6 µM (inactive),69 µM (inactive),> 100 µM (inactive),75 µM (inactive),> 100 µM (inactive),26.3 µM (inactive),32.7 µM (inactive),65 µM (inactive),57.7 µM (inactive),67.9,28.9 µM (inactive),,18.9 µM (inactive)
COc1ccc2nc3cccc([N+](=O)[O-])c3c(NCCC(=O)O)c2c1,> 10 µM (inactive),> 10 µM (inactive),> 10 µM (inactive),> 10 µM (inactive),> 10 µM (inactive),> 10 µM (inactive),6.67 µM (inactive),> 10 µM (inactive),> 10 µM (inactive),> 10 µM (inactive),> 10 µM (inactive),> 10 µM (inactive),> 10 µM (inactive),> 10 µM (inactive),> 10 µM (inactive),> 10,,> 10 µM (inactive),> 10 µM (inactive)
Fc1cc2nc3n(c2cc1F)C(c1c(Cl)cccc1Cl)SC3 (stereo not given),21.8 µM (inactive),15.7 µM (inactive),24.7 µM (inactive),14.3 µM (inactive),15.5 µM (inactive),16.3 µM (inactive),,16.3 µM (inactive),16.6 µM (inactive),16.3 µM (inactive),13.4 µM (inactive),17.1 µM (inactive),17.5 µM (inactive),14.1 µM (inactive),16.5 µM (inactive),17.5,15.8 µM (inactive),11.9 µM (inactive),
Cc1nc(O)nc(N/N=C/c2c3ccccc3c(Cl)c3ccccc23)c1C(=O)Nc1ccc(Cl)cc1,> 100 µM (inactive),79.3 µM (inactive),74 µM (inactive),> 100 µM (inactive),19 µM (inactive),38.9 µM (inactive),32.3 µM (inactive),> 100 µM (inactive),> 100 µM (inactive),10.8 µM (inactive),,> 100 µM (inactive),33.8 µM (inactive),99.5 µM (inactive),> 100 µM (inactive),> 100,> 100 µM (inactive),> 100 µM (inactive),68.5 µM (inactive)
CCOC(=O)Nc1cc2ccccc2c(/N=N/c2ccccc2)c1O,> 100 µM (inactive),> 100 µM (inactive),> 100 µM (inactive),> 100 µM (inactive),> 100 µM (inactive),,> 100 µM (inactive),> 100 µM (inactive),> 100 µM (inactive),> 100 µM (inactive),> 100 µM (inactive),> 100 µM (inactive),> 100 µM (inactive),75.3 µM (inactive),58.2 µM (inactive),> 100,> 100 µM (inactive),> 100 µM (inactive),> 100 µM (inactive)
O=C1C=Cc2c(Br)sc(Br)c21,27.3 µM (inactive),25.9 µM (inactive),,35.6 µM (inactive),23.1 µM (inactive),20.5 µM (inactive),2.64 µM (inactive),39.8 µM (inactive),26.7 µM (inactive),19.7 µM (inactive),37.4 µM (inactive),26.9 µM (inactive),24.7 µM (inactive),19.6 µM (inactive),30.5 µM (inactive),26.2,17.7 µM (inactive),10.3 µM (inactive),23 µM (inactive)
CCn1ncc2c(=O)n3ncn(-c4ccc(Br)cc4)c3nc21,> 100 µM (inactive),> 100 µM (inactive),> 100 µM (inactive),> 100 µM (inactive),> 100 µM (inactive),,> 100 µM (inactive),> 100 µM (inactive),> 100 µM (inactive),> 100 µM (inactive),> 100 µM (inactive),> 100 µM (inactive),> 100 µM (inactive),,> 100 µM (inactive),> 100,> 100 µM (inactive),> 100 µM (inactive),> 100 µM (inactive)
C=CCN(c1cc(OCc2ccccc2)c2c(c1)c(C)cn2S(=O)(=O)c1ccccc1)S(C)(=O)=O,> 100 µM (inactive),> 100 µM (inactive),> 100 µM (inactive),> 100 µM (inactive),> 100 µM (inactive),> 100 µM (inactive),> 100 µM (inactive),> 100 µM (inactive),> 100 µM (inactive),> 100 µM (inactive),> 100 µM (inactive),> 100 µM (inactive),> 100 µM (inactive),> 100 µM (inactive),> 100 µM (inactive),> 100,,> 100 µM (inactive),> 100 µM (inactive)
CC(=O)CCN1CC2CN=NC2(C#N)C1 (stereo not given),> 100 µM (inactive),,20.7 µM (inactive),> 100 µM (inactive),14.3 µM (inactive),49 µM (inactive),15.9 µM (inactive),> 100 µM (inactive),> 100 µM (inactive),> 100 µM (inactive),> 100 µM (inactive),> 100 µM (inactive),24.8 µM (inactive),0.379 µM (active),> 100 µM (inactive),69,> 100 µM (inactive),,6.7 µM (inactive)
CC1=N[C@](C)(C2CC3C=CC2C3=O)COC1=O (stereo not given in full),> 100 µM (inactive),> 100 µM (inactive),> 100 µM (inactive),> 100 µM (inactive),> 100 µM (inactive),,> 100 µM (inactive),> 100 µM (inactive),> 100 µM (inactive),> 100 µM (inactive),> 100 µM (inactive),,> 100 µM (inactive),> 100 µM (inactive),> 100 µM (inactive),,> 100 µM (inactive),,> 100 µM (inactive)
Cc1ccc(OCCn2cc(Nc3ccccc3)c(=O)n(CCOc3ccc(C)cc3)c2=O)cc1,> 100 µM (inactive),> 100 µM (inactive),> 100 µM (inactive),> 100 µM (inactive),,> 100 µM (inactive),> 100 µM (inactive),> 100 µM (inactive),> 100 µM (inactive),93.5 µM (inactive),> 100 µM (inactive),> 100 µM (inactive),> 100 µM (inactive),> 100 µM (inactive),35.6 µM (inactive),> 100,> 100 µM (inactive),> 100 µM (inactive),70.5 µM (inactive)
